In ChEMBL document CHEMBL1126778, “Adenosine A1 antagonists. 3. Structure-activity relationships on amelioration against scopolamine- or N6-((R)-phenylisopropyl)adenosine-induced cognitive disturbance” (J Med Chem, 1993):

How the values were obtained:
Mus musculus [1] = assay: Acquisition time in (R)-PIA) induced avoidance test (performed in mice) for antagonistic activity after peroral administration of 0.08 mg/kg (n=15); assay type: functional; details: route oral
Mus musculus [2] = assay: Acquisition time in (R)-PIA) induced avoidance test (performed in mice) for antagonistic activity after peroral administration of 0.31 mg/kg (n=15); assay type: functional; details: route oral
Mus musculus [3] = assay: Acquisition time in (R)-PIA) induced avoidance test (performed in mice) for antagonistic activity after peroral administration of 1.25 mg/kg (n=15); assay type: functional; details: route oral
Mus musculus [4] = assay: Acquisition time in (R)-PIA) induced avoidance test (performed in mice) for antagonistic activity after peroral administration of 5 mg/kg (n=15); assay type: functional; details: route oral
Mus musculus [5] = assay: Retention time in (R)-PIA) induced avoidance test (performed in mice) for antagonistic activity after peroral administration of 1.25 mg/kg (n=15) (P<0.005); assay type: functional, organism-based; parameters: dose 1.25 mg/kg
Mus musculus [6] = assay: Retention time in (R)-PIA) induced avoidance test (performed in mice) for antagonistic activity after peroral administration of 20 mg/kg (n=15) (P<0.05); assay type: functional, organism-based; parameters: dose 20 mg/kg
Mus musculus [7] = assay: Retention time in (R)-PIA) induced avoidance test (performed in mice) for antagonistic activity after peroral administration of 0.08 mg/kg (n=15) (P<0.005); assay type: functional, organism-based; parameters: dose 0.08 mg/kg
Mus musculus [8] = assay: Retention time in (R)-PIA) induced avoidance test (performed in mice) for antagonistic activity after peroral administration of 0.31 mg/kg (n=15) (P<0.01); assay type: functional, organism-based; parameters: dose 0.31 mg/kg
Mus musculus [9] = assay: Tested for locomotor activity after oral administration of 10 mg/kg for 120 min; assay type: functional
Mus musculus [10] = assay: Tested for locomotor activity after oral administration of […] for 120 min; assay type: functional
Rattus norvegicus [11] = assay: Acquisition time in Scopolamine induced avoidance test (performed in rat) for antagonistic activity after peroral administration of 1.25 mg/kg (n=18); assay type: functional; details: route oral
Rattus norvegicus [12] = assay: Acquisition time in Scopolamine induced avoidance test (performed in rat) for antagonistic activity after peroral administration of 0.02 mg/kg (n=18); assay type: functional; details: route oral
Rattus norvegicus [13] = assay: Acquisition time in Scopolamine induced avoidance test (performed in rat) for antagonistic activity after peroral administration of 0.08 mg/kg (n=18); assay type: functional; details: route oral
Rattus norvegicus [14] = assay: Acquisition time in Scopolamine induced avoidance test (performed in rat) for antagonistic activity after peroral administration of 0.31 mg/kg (n=18); assay type: functional; details: route oral
Rattus norvegicus [15] = assay: Acquisition time in Scopolamine induced avoidance test (performed in rat) for antagonistic activity after peroral administration of 5 mg/kg (n=18); assay type: functional; details: route oral
Rattus norvegicus [16] = assay: Retention time in Scopolamine induced avoidance test (performed in […]) for antagonistic activity after peroral administration of 1.25 mg/kg (n=18) (P<0.05); assay type: functional, organism-based; parameters: dose 1.25 mg/kg
Rattus norvegicus [17] = assay: Retention time in Scopolamine induced avoidance test (performed in rat) for antagonistic activity after peroral administration of 0.02 mg/kg (n=18) (P<0.05); assay type: functional, organism-based; parameters: dose 0.02 mg/kg
Rattus norvegicus [18] = assay: Retention time in Scopolamine induced avoidance test (performed in rat) for antagonistic activity after peroral administration of 0.31 mg/kg (n=18) (P<0.005); assay type: functional, organism-based; parameters: dose 0.31 mg/kg
Rattus norvegicus [19] = assay: Retention time in Scopolamine induced avoidance test (performed in rat) for antagonistic activity after peroral administration of 5 mg/kg (n=18) (P<0.05); assay type: functional, organism-based; parameters: dose 5 mg/kg
Rattus norvegicus [20] = assay: Retention time in Scopolamine induced avoidance test (performed in rat) for antagonistic activity after peroral administration of 0.08 mg/kg (n=18) (P<0.05); assay type: functional, organism-based; parameters: dose 0.08 mg/kg
Mus musculus [21] = assay: Acquisition time in (R)-PIA) induced avoidance test (performed in mice) for antagonistic activity after p.o. administration of 0.31 mg/kg; assay type: functional; details: route oral
Mus musculus [22] = assay: Acquisition time in (R)-PIA) induced avoidance test (performed in mice) for antagonistic activity after p.o. administration of 1.25 mg/kg; assay type: functional; details: route oral
Mus musculus [23] = assay: Acquisition time in (R)-PIA) induced avoidance test (performed in mice) for antagonistic activity after peroral administration of 20 mg/kg; assay type: functional; details: route oral
Mus musculus [24] = assay: Retention time in (R)-PIA) induced avoidance test (performed in mice) for antagonistic activity after p.o. administration of 1.25 mg/kg; assay type: functional, organism-based; parameters: dose 1.25 mg/kg
Mus musculus [25] = assay: Retention time in (R)-PIA) induced avoidance test (performed in mice) for antagonistic activity after peroral administration of 20 mg/kg; assay type: functional, organism-based; parameters: dose 20 mg/kg
Mus musculus [26] = assay: Retention time in (R)-PIA) induced avoidance test (performed in mice) for antagonistic activity after peroral administration of 5 mg/kg; assay type: functional, organism-based; parameters: dose 5 mg/kg
Mus musculus [27] = assay: Retention time in (R)-PIA) induced avoidance test (performed in mice) for antagonistic activity after peroral administration of 0.31 mg/kg; assay type: functional, organism-based; parameters: dose 0.31 mg/kg
Rattus norvegicus [28] = assay: Acquisition time in Scopolamine induced avoidance test (performed in rat) for antagonistic activity after peroral administration of 1.25 mg/kg; assay type: functional; details: route oral
Rattus norvegicus [29] = assay: Acquisition time in Scopolamine induced avoidance test (performed in rat) for antagonistic activity after peroral administration of 20 mg/kg; assay type: functional; details: route oral
Rattus norvegicus [30] = assay: Acquisition time in Scopolamine induced avoidance test (performed in rat) for antagonistic activity after p.o. administration of 0.08 mg/kg; assay type: functional; details: route oral
Rattus norvegicus [31] = assay: Acquisition time in Scopolamine induced avoidance test (performed in rat) for antagonistic activity after p.o. administration of 0.31 mg/kg; assay type: functional; details: route oral
Rattus norvegicus [32] = assay: Acquisition time in Scopolamine induced avoidance test (performed in rat) for antagonistic activity after p.o. administration of 5 mg/kg; assay type: functional; details: route oral
Rattus norvegicus [33] = assay: Retention time in Scopolamine induced avoidance test (performed in […]) for antagonistic activity after peroral administration of 5 mg/kg; assay type: functional, organism-based; parameters: dose 5 mg/kg
Rattus norvegicus [34] = assay: Retention time in Scopolamine induced avoidance test (performed in rat) for antagonistic activity after p.o. administration of 0.08 mg/kg; assay type: functional, organism-based; parameters: dose 0.08 mg/kg
Rattus norvegicus [35] = assay: Retention time in Scopolamine induced avoidance test (performed in rat) for antagonistic activity after p.o. administration of 0.31 mg/kg; assay type: functional, organism-based; parameters: dose 0.31 mg/kg
Rattus norvegicus [36] = assay: Retention time in Scopolamine induced avoidance test (performed in rat) for antagonistic activity after peroral administration of 1.25 mg/kg; assay type: functional, organism-based; parameters: dose 1.25 mg/kg
Rattus norvegicus [37] = assay: Retention time in Scopolamine induced avoidance test (performed in rat) for antagonistic activity after peroral administration of 20 mg/kg (n=9); assay type: functional, organism-based; parameters: dose 20 mg/kg
Mus musculus [38] = assay: Acquisition time in (R)-PIA) induced avoidance test (performed in mice) for antagonistic activity after peroral administration of 5 mg/kg; assay type: functional; details: route oral

CCCn1c(=O)c2nc(C3CCC(=O)C3)[nH]c2n(CCC)c1=O (stereo not drawn)
Acquisition time (Mus musculus [1]): 20.8 s | Acquisition time (Mus musculus [2]): 22 s | Acquisition time (Mus musculus [3]): 15.1 s | Acquisition time (Mus musculus [4]): 15.1 s | Retention time (Mus musculus [5]): 339 s | Retention time (Mus musculus [6]): 319 s | Retention time (Mus musculus [7]): 322 s | Retention time (Mus musculus [8]): 234 s | Locomotor activity (Mus musculus [9]): 8204 Counts | Locomotor activity (Mus musculus [10]): 6134 Counts | Acquisition time (Rattus norvegicus [11]): 11.4 s | Acquisition time (Rattus norvegicus [12]): 16.4 s | Acquisition time (Rattus norvegicus [13]): 12.8 s | Acquisition time (Rattus norvegicus [14]): 13.2 s | Acquisition time (Rattus norvegicus [15]): 9.8 s | Retention time (Rattus norvegicus [16]): 85.9 s | Retention time (Rattus norvegicus [17]): 169 s | Retention time (Rattus norvegicus [18]): 163 s | Retention time (Rattus norvegicus [19]): 75.9 s | Retention time (Rattus norvegicus [20]): 126 s

CCCn1c(=O)c2c(nc(/C=C/c3ccc(OC)c(OC)c3)n2C)n(CCC)c1=O
Acquisition time (Mus musculus [21]): 22.7 s | Acquisition time (Mus musculus [22]): 25.3 s | Acquisition time (Mus musculus [23]): 31.2 s | Retention time (Mus musculus [24]): 65.3 s | Retention time (Mus musculus [25]): 92.4 s | Retention time (Mus musculus [26]): 37.5 s | Retention time (Mus musculus [27]): 42.4 s | Acquisition time (Rattus norvegicus [28]): 10.1 s | Acquisition time (Rattus norvegicus [29]): 22.2 s | Acquisition time (Rattus norvegicus [30]): 14.9 s | Acquisition time (Rattus norvegicus [31]): 11.8 s | Acquisition time (Rattus norvegicus [32]): 24.4 s | Retention time (Rattus norvegicus [33]): 4.9 s | Retention time (Rattus norvegicus [34]): 31.1 s | Retention time (Rattus norvegicus [35]): 12.9 s | Retention time (Rattus norvegicus [36]): 20.3 s | Retention time (Rattus norvegicus [37]): 15.6 s | Acquisition time (Mus musculus [38]): 19.8 s
